Several values for one entry are separate records, joined by “and”; a condition that tells them apart may be missing. Equal entries are not always repeated. Numbers after ± are expanded uncertainties.
Settings: 303.16 K, Liquid, Vibrating tube method

CCCCCC(=O)OCC(COC(=O)CCCCC)(COC(=O)CCCCC)COC(=O)CCCCC [pentaerythritol tetrahexanoate]
Settings	mass density
327 kPa	988.6 ± 1.2 kg/m3
327.1 kPa	988.6 ± 1.2 kg/m3
327.3 kPa	988.6 ± 1.2 kg/m3
327.7 kPa	988.6 ± 1.2 kg/m3
328.4 kPa	988.5 ± 1.2 kg/m3
328.9 kPa	988.6 ± 1.2 kg/m3
329.1 kPa	988.6 ± 1.2 kg/m3
333.2 kPa	988.6 ± 1.2 kg/m3
333.9 kPa	988.6 ± 1.2 kg/m3
339.3 kPa	988.7 ± 1.2 kg/m3
339.7 kPa	988.6 ± 1.2 kg/m3
340.3 kPa	988.7 ± 1.2 kg/m3
341 kPa	988.6 ± 1.2 kg/m3
344.3 kPa	988.5 ± 1.2 kg/m3
344.5 kPa	988.7 ± 1.2 kg/m3
344.7 kPa	988.6 ± 1.2 kg/m3
345.2 kPa	988.6 ± 1.2 kg/m3
345.5 kPa	988.6 ± 1.2 kg/m3
346.2 kPa	988.5 ± 1.2 kg/m3
346.6 kPa	988.7 ± 1.2 kg/m3
346.9 kPa	988.6 ± 1.2 kg/m3
347.3 kPa	988.5 ± 1.2 kg/m3
347.6 kPa	988.6 ± 1.2 kg/m3
348.2 kPa	988.7 ± 1.2 kg/m3
348.7 kPa	988.6 ± 1.2 kg/m3
349.2 kPa	988.5 ± 1.2 kg/m3 and 988.6 ± 1.2 kg/m3
349.4 kPa	988.6 ± 1.2 kg/m3
349.9 kPa	988.5 ± 1.2 kg/m3
350.6 kPa	988.5 ± 1.2 kg/m3
350.9 kPa	988.6 ± 1.2 kg/m3
351.5 kPa	988.7 ± 1.2 kg/m3 and 988.6 ± 1.2 kg/m3
352 kPa	988.6 ± 1.2 kg/m3
352.8 kPa	988.6 ± 1.2 kg/m3
353.2 kPa	988.8 ± 1.2 kg/m3 and 988.5 ± 1.2 kg/m3
353.4 kPa	988.6 ± 1.2 kg/m3
353.5 kPa	988.6 ± 1.2 kg/m3
354.1 kPa	988.7 ± 1.2 kg/m3
354.2 kPa	988.6 ± 1.2 kg/m3
354.6 kPa	988.6 ± 1.2 kg/m3
354.9 kPa	988.6 ± 1.2 kg/m3
358.1 kPa	988.6 ± 1.2 kg/m3
358.4 kPa	988.7 ± 1.2 kg/m3
358.9 kPa	988.6 ± 1.2 kg/m3
359.4 kPa	988.6 ± 1.2 kg/m3
359.8 kPa	988.6 ± 1.2 kg/m3
360.3 kPa	988.6 ± 1.2 kg/m3 and 988.5 ± 1.2 kg/m3
364.5 kPa	988.6 ± 1.2 kg/m3
365 kPa	988.7 ± 1.2 kg/m3
365.2 kPa	988.5 ± 1.2 kg/m3
365.9 kPa	988.7 ± 1.2 kg/m3
366.2 kPa	988.7 ± 1.2 kg/m3
366.6 kPa	988.7 ± 1.2 kg/m3
367.3 kPa	988.8 ± 1.2 kg/m3
367.6 kPa	988.6 ± 1.2 kg/m3
368 kPa	988.6 ± 1.2 kg/m3
368.3 kPa	988.6 ± 1.2 kg/m3
368.6 kPa	988.7 ± 1.2 kg/m3
369.5 kPa	988.6 ± 1.2 kg/m3
369.9 kPa	988.6 ± 1.2 kg/m3
370 kPa	988.5 ± 1.2 kg/m3
370.2 kPa	988.6 ± 1.2 kg/m3
371.1 kPa	988.6 ± 1.2 kg/m3
371.3 kPa	988.6 ± 1.2 kg/m3
371.6 kPa	988.7 ± 1.2 kg/m3
372.1 kPa	988.7 ± 1.2 kg/m3
372.5 kPa	988.5 ± 1.2 kg/m3
373 kPa	988.6 ± 1.2 kg/m3
373.5 kPa	988.7 ± 1.2 kg/m3
374.2 kPa	988.6 ± 1.2 kg/m3
374.6 kPa	988.6 ± 1.2 kg/m3
374.9 kPa	988.6 ± 1.2 kg/m3
375.4 kPa	988.7 ± 1.2 kg/m3

Reference: the NIST ThermoML archive (doi:10.1021/je060271a)
